Data taken from patent US10953012B2, “Heterocyclic compounds for the inhibition of pask” (BioEnergenix LLC, priority 2011, dated 2021).
pIC50: −log10 of the molar value.

What was measured:
CK2a2 = CK2a2 (Homo sapiens (Human), UniProt P19784); assay: Biochemical Assay for CK2 Activity; details: 33P-ATP radiochemical assay; read-out: IC50 CK2 a2
Method in brief: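 GST-tagged full-length human CK2a2 from insect cells (1.2 nM) with 20 μM RRRDDDSDDD peptide, in pH 7.5 HEPES buffer with MgCl2, DTT and 1% DMSO. Reactions started with ³³P-ATP were run for 120 min at room temperature. Substrate phosphorylation was measured by P81 phosphocellulose filter binding and scintillation counting.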

PASK [1] = target: PASK (UniProt #Q96RG2; residues 879-1323) (Homo sapiens (Human), UniProt Q96RG2); assay: PASK ATP Radiochemical Assay; type: biochemical; details: 33P-ATP radiochemical assay; read-out: IC50 Kinase Domain
Protocol: PASK ATP Radiochemical Assay Purified PASK (UniProt #Q96RG2; human recombinant N-terminal GST tagged construct, residues 879-1323) from insect cells (final concentration 5 nM) is added to freshly prepared Base Reaction Buffer containing 20 mM HEPES (pH 7.5), 10 mM MgCl2, 1 mM EGTA, 0.02% Brij35, 0.02 mg/ml BSA, 0.1 mM Na3VO4, 2 mM DTT, 1% DMSO and Myelin Basic Protein (20 μM final). Test compounds in DMSO are then added and the mixture, followed by delivery of ^33P-ATP (specific activity 0.01 μCi/μl final) to initiate the reaction. The kinase reaction is incubated for 120 min at room temperature. The entire reaction mixture is washed through onto a P81 Phosphocellulose paper and washed three times for 10 minutes in 75 mM phosphoric acid and once in methanol prior to drying and scintillation counting.

PASK [2] = target: PASK (Homo sapiens (Human), UniProt Q96RG2); assay: PAS Kinase FRET Assay; type: biochemical; details: TR-FRET assay; read-out: IC50 Kinase Domain
Method in brief: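 Reaction buffer: 50 mM HEPES, 10 mM MgCl2, 1 mM EGTA, 2 mM DTT, 0.01% Tween-20. Test compounds (eleven-point series prepared at 4× final) preceded PASK and substrate/ATP. Reaction ran 2 h at 25 °C in the dark, then stopped. Phospho-ULight peptide detected by Eu-antibody TR-FRET, 665/615 nm ratio.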

PASK (UniProt #Q96RG2; residues 879-1323) (Homo sapiens (Human), UniProt Q96RG2), sequence (Q96RG2 879-1323): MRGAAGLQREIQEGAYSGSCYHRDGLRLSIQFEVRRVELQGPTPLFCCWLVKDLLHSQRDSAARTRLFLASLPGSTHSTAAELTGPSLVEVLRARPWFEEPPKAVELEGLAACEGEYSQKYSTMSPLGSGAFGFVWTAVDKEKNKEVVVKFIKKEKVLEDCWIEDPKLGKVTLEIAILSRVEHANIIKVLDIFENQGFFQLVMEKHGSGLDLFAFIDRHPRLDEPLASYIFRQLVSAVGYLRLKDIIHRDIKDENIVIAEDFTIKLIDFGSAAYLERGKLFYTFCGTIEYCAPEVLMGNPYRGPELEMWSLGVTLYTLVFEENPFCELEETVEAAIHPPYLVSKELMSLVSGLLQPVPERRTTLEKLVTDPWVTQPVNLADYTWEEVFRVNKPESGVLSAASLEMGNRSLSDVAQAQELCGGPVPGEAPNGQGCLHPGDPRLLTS
PASK (Homo sapiens (Human), UniProt Q96RG2), sequence (Q96RG2 999-1251): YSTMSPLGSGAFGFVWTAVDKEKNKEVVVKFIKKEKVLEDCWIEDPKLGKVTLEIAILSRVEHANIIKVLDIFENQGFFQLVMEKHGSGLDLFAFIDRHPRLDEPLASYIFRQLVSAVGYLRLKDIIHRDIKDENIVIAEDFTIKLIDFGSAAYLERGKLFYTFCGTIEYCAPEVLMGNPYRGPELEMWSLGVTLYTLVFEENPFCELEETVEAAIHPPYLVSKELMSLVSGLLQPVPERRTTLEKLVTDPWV
CK2a2, sequence (P19784 whole entry): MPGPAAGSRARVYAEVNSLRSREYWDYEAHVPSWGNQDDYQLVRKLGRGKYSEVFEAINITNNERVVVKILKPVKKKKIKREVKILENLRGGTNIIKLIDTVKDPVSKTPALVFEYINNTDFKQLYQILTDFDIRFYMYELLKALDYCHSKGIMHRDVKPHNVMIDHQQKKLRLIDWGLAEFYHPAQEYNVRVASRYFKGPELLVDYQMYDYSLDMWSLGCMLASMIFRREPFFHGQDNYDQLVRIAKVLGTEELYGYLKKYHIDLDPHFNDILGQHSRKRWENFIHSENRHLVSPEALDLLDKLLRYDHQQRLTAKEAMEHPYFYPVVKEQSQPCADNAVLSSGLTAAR

Row | Compound | pIC50 (CK2a2) | pIC50 (PASK [1]) | pIC50 (PASK [2])
1 | CCc1nn2c(=O)cc(-c3ccc4c(c3)OCO4)[nH]c2c1-c1ccccn1 [Example 161, 5-(Benzo[d][1,3]dioxol-5-yl)-2-ethyl-3-(pyridin-2-yl)pyrazolo[1,5-a]pyrimidin-7(4H)-one] | ≥ 5.00 | ≥ 5.00 | ≥ 5.00
2 | Nc1nn2c(=O)cc(-c3ccc(Cl)cc3F)[nH]c2c1-c1ccccn1 [Example 163, 2-Amino-5-(4-chloro-2-fluorophenyl)-3-(pyridin-2-yl)pyrazolo[1,5-a]pyrimidin-7(4H)-one] | ≥ 5.00 | ≥ 5.00 | ≥ 5.00
3 | O=c1cc(-c2ccc3c(c2)OCO3)[nH]c2c(-c3ncccc3F)cnn12 [Example 164, 5-(Benzo[d][1,3]dioxol-5-yl)-3-(3-fluoropyridin-2-yl)pyrazolo[1,5-a]pyrimidin-7(4H)-one] | ≥ 5.00 | ≥ 5.00 | ≥ 5.00
4 | Nc1nn2c(=O)cc(-c3ccc(F)cc3)[nH]c2c1-c1ccccn1 [Example 171, 2-Amino-5-(4-fluorophenyl)-3-(pyridin-2-yl)pyrazolo[1,5-a]pyrimidin-7(4H)-one] | ≥ 5.00 | ≥ 5.00 | ≥ 5.00
5 | Nc1nn2c(=O)cc(-c3ccc4[nH]nnc4c3)[nH]c2c1-c1ccccn1 [Example 191, 2-Amino-5-(1H-benzo[d][1,2,3]triazol-5-yl)-3-(pyridin-2-yl)pyrazolo[1,5-a]pyrimidin-7(4H)-one] | ≥ 5.00 | ≥ 5.00 | ≥ 5.00
6 | O=c1cc(-c2ccc3[nH]nnc3c2)[nH]c2c(-c3ccccn3)c(O)nn12 [Example 193, 5-(1H-Benzo[d][1,2,3]triazol-5-yl)-2-hydroxy-3-(pyridin-2-yl)pyrazolo[1,5-a]pyrimidin-7(4H)-one] | ≥ 5.00 | ≥ 5.00 | ≥ 5.00
7 | CCCNC(=O)c1c(N)nn2c(=O)cc(-c3ccc4c(cnn4C)c3)[nH]c12 [Example 197, 2-Amino-5-(1-methyl-1H-indazol-5-yl)-7-oxo-N-propyl-4,7-dihydropyrazolo[1,5-a]pyrimidine-3-carboxamide] | ≥ 5.00 | ≥ 5.00 | ≥ 5.00
8 | CCCNC(=O)c1c(N)nn2c(=O)cc(-c3ccc4[nH]ncc4c3)[nH]c12 [Example 198, 2-Amino-5-(1H-indazol-5-yl)-7-oxo-N-propyl-4,7-dihydropyrazolo[1,5-a]pyrimidine-3-carboxamide] | ≥ 5.00 | ≥ 5.00 | ≥ 5.00
9 | Nc1nn2c(=O)cc(-c3ccc4[nH]nnc4c3)[nH]c2c1-c1ccccc1 [Example 199, 2-Amino-5-(1H-benzo[d][1,2,3]triazol-5-yl)-3-phenylpyrazolo[1,5-a]pyrimidin-7(4H)-one] | ≥ 5.00 | ≥ 5.00 | ≥ 5.00
10 | CCc1nn2c(=O)cc(-c3ccc4[nH]nnc4c3)[nH]c2c1-c1ccccn1 [Example 201, 5-(1H-benzo[d][1,2,3]triazol-5-yl)-2-ethyl-3-(pyridin-2-yl)pyrazolo[1,5-a]pyrimidin-7(4H)-one] | ≥ 5.00 | ≥ 5.00 | ≥ 5.00
11 | CC(=O)Nc1nn2c(=O)cc(-c3ccc4c(cnn4C)c3)[nH]c2c1-c1ccccn1 [Example 205, N-(5-(1-Methyl-1H-indazol-5-yl)-7-oxo-3-(pyridin-2-yl)-4,7-dihydropyrazolo[1,5-a]pyrimidin-2-yl)acetamide] | ≥ 5.00 | ≥ 5.00 | ≥ 5.00
12 | Cc1nn2c(=O)cc(-c3ccc4c(c3)OCO4)[nH]c2c1Cc1ccccn1 [Example 210, 5-(Benzo[d][1,3]dioxol-5-yl)-2-methyl-3-(pyridin-2-ylmethyl)pyrazolo[1,5-a]pyrimidin-7(4H)-one] | ≥ 5.00 | ≥ 5.00 | ≥ 5.00
13 | O=c1cc(-c2ccc3[nH]nnc3c2)[nH]c2c(-c3cccnc3)cnn12 [Example 213, 5-(1H-Benzo[d][1,2,3]triazol-5-yl)-3-(pyridin-3-yl)pyrazolo[1,5-a]pyrimidin-7(4H)-one] | ≥ 5.00 | ≥ 5.00 | ≥ 5.00
14 | CCCNC(=O)c1cnn2c(=O)cc(-c3ccc4[nH]nnc4c3)[nH]c12 [Example 214, 5-(1H-Benzo[d][1,2,3]triazol-5-yl)-7-oxo-N-propyl-4,7-dihydropyrazolo[1,5-a]pyrimidine-3-carboxamide] | ≥ 5.00 | ≥ 5.00 | ≥ 5.00
15 | Nc1nn2c(=O)cc(-c3ccc4[nH]nnc4c3)[nH]c2c1-c1ccc(Cl)cc1 [Example 217, 2-Amino-5-(1H-benzo[d][1,2,3]triazol-5-yl)-3-(4-chlorophenyl)pyrazolo[1,5-a]pyrimidin-7(4H)-one] | ≥ 5.00 | ≥ 5.00 | ≥ 5.00
16 | O=c1cc(-c2ccc3[nH]nnc3c2)[nH]c2c(-c3ccc(Cl)cc3)cnn12 [Example 218, 5-(1H-Benzo[d][1,2,3]triazol-5-yl)-3-(4-chlorophenyl)pyrazolo[1,5-a]pyrimidin-7(4H)-one] | ≥ 5.00 | ≥ 5.00 | ≥ 5.00
17 | CCCNC(=O)c1c(N)nn2c(=O)cc(-c3ccc4[nH]nnc4c3)[nH]c12 [Example 223, 2-Amino-5-(1H-benzo[d][1,2,3]triazol-5-yl)-7-oxo-N-propyl-4,7-dihydropyrazolo[1,5-a]pyrimidine-3-carboxamide] | ≥ 5.00 | ≥ 5.00 | ≥ 5.00
18 | CCCNC(=O)c1c(N)nn2c(=O)cc(-c3ccc4[nH]nc(C)c4c3)[nH]c12 [Example 224, 2-Amino-5-(3-methyl-1H-indazol-5-yl)-7-oxo-N-propyl-4,7-dihydropyrazolo[1,5-a]pyrimidine-3-carboxamide] | ≥ 5.00 | ≥ 5.00 | ≥ 5.00

Now from value to compound:

Row | pIC50 (CK2a2) | pIC50 (PASK [1]) | pIC50 (PASK [2]) | Compound
19 | ≥ 5.00 | ≥ 5.00 | ≥ 5.00 | CCCNC(=O)c1cnn2c(=O)cc(-c3ccc4c(c3)OCCO4)[nH]c12 [Example 145, 5-(2,3-Dihydrobenzo[b][1,4]dioxin-6-yl)-7-oxo-N-propyl-4,7-dihydropyrazolo[1,5-a]pyrimidine-3-carboxamide]
20 | ≥ 5.00 | ≥ 5.00 | ≥ 5.00 | O=c1cc(-c2ccc3occc3c2)[nH]c2c(-c3cccnc3)c(O)nn12 [Example 147, 5-(Benzofuran-5-yl)-2-hydroxy-3-(pyridin-3-yl)pyrazolo[1,5-a]pyrimidin-7(4H)-one]
21 | ≥ 5.00 | ≥ 5.00 | ≥ 5.00 | Nc1nn2c(=O)cc(-c3ccc4c(c3)OCCO4)[nH]c2c1-c1ccccn1 [Example 148, 2-Amino-5-(2,3-dihydrobenzo[b][1,4]dioxin-6-yl)-3-(pyridin-2-yl)pyrazolo[1,5-a]pyrimidin-7(4H)-one]
22 | ≥ 5.00 | ≥ 5.00 | ≥ 5.00 | Nc1nn2c(=O)cc(-c3ccc4c(c3)OCO4)[nH]c2c1-c1ccccn1 [Example 150, 2-Amino-5-(benzo[d][1,3]dioxol-5-yl)-3-(pyridin-2-yl)pyrazolo[1,5-a]pyrimidin-7(4H)-one]
23 | ≥ 5.00 | ≥ 5.00 | ≥ 5.00 | Nc1nn2c(=O)cc(-c3ccc(Cl)cc3)[nH]c2c1-c1ccccn1 [Example 152, 2-Amino-5-(4-chlorophenyl)-3-(pyridin-2-yl)pyrazolo[1,5-a]pyrimidin-7(4H)-one]
24 | ≥ 5.00 | ≥ 5.00 | ≥ 5.00 | CC(=O)Nc1nn2c(=O)cc(-c3ccc4c(c3)OCO4)[nH]c2c1-c1ccccn1 [Example 155, N-(5-(Benzo[d][1,3]dioxol-5-yl)-7-oxo-3-(pyridin-2-yl)-4,7-dihydropyrazolo[1,5-a]pyrimidin-2-yl)acetamide]
25 | ≥ 5.00 | ≥ 5.00 | ≥ 5.00 | CCNc1nn2c(=O)cc(-c3ccc4c(c3)OCO4)[nH]c2c1-c1ccccn1 [Example 156, 5-(Benzo[d][1,3]dioxol-5-yl)-2-(ethylamino)-3-(pyridin-2-yl)pyrazolo[1,5-a]pyrimidin-7(4H)-one]
26 | ≥ 5.00 | ≥ 5.00 | ≥ 5.00 | O=c1cc(-c2ccc3c(c2)OC(F)(F)O3)[nH]c2c(-c3ccccn3)cnn12 [Example 158, 5-(2,2-Difluorobenzo[d][1,3]dioxol-5-yl)-3-(pyridin-2-yl)pyrazolo[1,5-a]pyrimidin-7(4H)-one]
27 | ≥ 5.00 | ≥ 5.00 | ≥ 5.00 | Nc1nn2c(=O)cc(-c3ccc4[nH]ncc4c3)[nH]c2c1-c1ccccn1 [Example 159, 2-Amino-5-(1H-indazol-5-yl)-3-(pyridin-2-yl)pyrazolo[1,5-a]pyrimidin-7(4H)-one]
28 | ≥ 5.00 | ≥ 5.00 | ≥ 5.00 | O=c1cc(-c2ccc3[nH]ncc3c2)[nH]c2c(-c3ccccn3)cnn12 [Example 160, 5-(1H-Indazol-5-yl)-3-(pyridin-2-yl)pyrazolo[1,5-a]pyrimidin-7(4H)-one]
